Reference: patent publication US11576901B2, “Methods for treating viral infection” (HOWARD UNIVERSITY, priority 2016, dated 2023)

How the values were obtained:
Assay type in all cases: cell-based
[1] = system: HIV1 modified pNL4-3.Luc.R-E-virus; test: Luciferase luminescence of CEM T cells infected with HIV1 modified pNL4-3.Luc.R-E-virus; parameters: dose or concentration left out as unconfirmed; conditions: CEM T cells pretreated before infection; vs untreated and DMSO; FIG. 2
From the text: The expression of the protein assessed may be native, i.e. naturally occurring within the genome of the virus to be treated. In combination or the alternative, expression of a protein introduced to the viral genome may be assessed. Assessing the expression of an introduced protein may enable an assessment of viral proliferation by means not normally permitted by the native viral genome. For example, proliferation of the HIV1 virus can be assessed using luminescence with the HIV1 modified pNL4-3.Luc.R-E-virus. […] Accordingly, proliferation of the HIV1 modified pNL4-3.Luc.R-E-virus will entail production of the luciferase protein. […]
Accordingly, compounds in accordance with General Formula 1, including derivatives in accordance with General Formulae 1-1 to 1-20, or pharmaceutically acceptable salts thereof, can be assessed for the ability to inhibit proliferation of the HIV1 by infecting CEM T cells with the HIV1 modified pNL4-3.Luc.R-E-virus. […]
Prior to infection with the HIV1 modified pNL4-3.Luc.R-E-virus, the CEM T cells were pretreated with either SD-29 or DMSO ([…]) or left untreated. […] To assess luminescence, 100 μL of the cell suspension and […] of reconstituted luciferase buffer (Luclite Kit, Perkin Elmer) were added to wells and allowed to incubate for 10 minutes. […]

[2] = system: HIV1 modified pNL4-3.Luc.R-E-virus; test: Western assay of HIV p24 gag expression in infected CEM T cells; conditions: Western assay with HIV p24 antibody, FIG. 4
From the text: The ability of a compound in accordance with General Formula 1, including derivatives in accordance with General Formulae 1-1 to 1-20, or pharmaceutically acceptable salts thereof, to inhibit the expression of at least a portion of a virus genome containing an IRES sequence can be also be determined by assessing the expression of a native protein within a viral genome. In some embodiments, the ability of a compound or pharmaceutically acceptable salt to inhibit expression of native protein can be assessed by using antibodies for a protein normally expressed from the virus genome. For example, HIV p24 gag is a protein normally expressed by HIV1 that can be detected using the HIVI p24 antibody. Accordingly, compounds in accordance with General Formula 1, including derivatives in accordance with any of General Formulae 1-1 to 1-20, or pharmaceutically acceptable salts thereof, can be assessed for the ability to inhibit proliferation of the HIV1 by infecting CEM T cells with the HIV1 modified pNL4-3.Luc.R-E-virus and assessing the expression of HIV p24 gag with the HIV p24 antibody. […]
A compound or salt may be wrongly classified as capable of inhibiting expression of at least a portion of a virus genome containing an IRES sequence due to unequal loading of proteins within an assay. […] In some embodiments, equivalent protein loading can be assessed by ponceau staining. […]

HSV-1 = test: qPCR of ICP-0 mRNA in HSV-1 infected Hep-2 cells; conditions: 100 μM, 24 hours pretreatment, 0, 6, 12 and 24 hours after infection, vs DMSO, FIG. 8
From the text: The inhibition of triggered expression of at least a portion of the HSV-1 genome and the inhibited proliferation of HSV-1, which may be the result of the former, indicate that compounds in accordance with General Formula 1, including derivatives in accordance with any of General Formulae 1-1 to 1-20, can treat viral infections. The treatment provided by compounds in accordance with General Formula 1, including derivatives in accordance with any of General Formulae 1-1 to 1-20, may be the result of either inhibition of transcription of viral mRNAs containing an IRES or the inhibited expression of viral proteins encoded by such within the IRES reading frame of such an mRNA. Determining whether mRNA transcription or protein expression is being inhibited can be accomplished by assessing the amount of mRNA containing an IRES is diminished by treatment with a compound in accordance with General Formula 1, including derivatives in accordance with any of General Formulae 1-1 to 1-20. FIG. 8 reports the amount of mRNA of the IE gene ICP-0 detected in Hep-2 cells following treatment with SD-29.
Hep-2 cells were pretreated with either DSMO as a control, 100 μM SD-29 or 100 μM SD29-12. After 24 hours of pretreatment, the Hep-2 cells were infected with HSV-1. At 0, 6, 12 and 24 hours after infection, the total RNA within the cells was isolated. […]

Q: Which “luminescence / proliferation of the HIV1 modified pNL4-3.Luc.R-E-virus” value [1] does the source give for `Nn1c(S)nnc1-c1ccc(F)cc1` [SD-29] here?
A: significantly reduced proliferation

Q: And the “expression of HIV p24 gag” value [2]?
A: does inhibit expression

Q: What about the “ICP-0 mRNA level / transcription of IE genes” value (HSV-1) of the same compound?
A: does not inhibit transcription of mRNA corresponding to IE genes
